pIC50: −log10 of the molar value.

For experiment [1], the system named is pERK in PSN1 cells. The experiment in a line: Inhibition of KRas phosphorylation of ERK (Cisbio HTRF pERK assay). The note with it: Homo sapiens, PSN1, 3 h, read-out: Inhibition (HTRF IC50) of KRas-mediated Phosphorylation of ERK, PSN1. Background: TR-FRET usually uses a lanthanide donor and a delayed reading to cut background.
For experiment [2], the system named is pERK in H727 cells. Described as above. Particulars: Homo sapiens, NCI-H727, read-out: Inhibition (HTRF IC50) of KRas-mediated Phosphorylation of ERK, H727.
In experiment [3] the test system is pERK in A549 cells. The experiment is described as above. Particulars: Homo sapiens, A549, read-out: Inhibition (HTRF IC50) of KRas-mediated Phosphorylation of ERK, A549.
Experimental: To harvest cells from flask using 0.05% Trypsin/EDTA solution. Add 10 mL of media to stop trypsinizing. Pipette the cells into a conical bottom 50 mL centrifuge tube and centrifuge 5 min×1000 rpm. • 2. Re-suspend the cell pellet in media, take a cell count, and then adjust the cell density using fresh media. • 3. Seed 6,000 cells into cell culture plate with 50 μL media. […] Incubate cell plate overnight in a 37° C., 5% CO2 incubator. • Compound titrations • 1. Use Tecan to complete the compound addition. Compounds start from 10 uM top, 3-fold dilution, and 10 doses. The final DMSO concentration is 0.8%. Dispensed 0.2 uM Trametinib as Min control. • 2. Incubate cell plate for 3 hrs in the incubator. • Detection with cisbio pERK HTRF kit • 1. […] At the end of the compound treatment, flick-off the media. • 3. Add 35 μL of lysis buffer per well using a Multidrop Combi. Then place on a plate agitator shaking at 300 rpm at 4° C. for 40 mins. • 4. Make up the HTRF antibody buffer. For each assay plate, mix 50 μL of d2-conjugate antibody with 950 μL of detection buffer. Similarly, mix 50 μL of Cryptate antibody with 950 μL of detection buffer. Then mix the two diluted antibodies together. • 5. Dispense 3.4 μL the antibody buffer to wells of an empty assay plate. Seal the plate and centrifuge plate 30 sec×1000 rpm. • 6. At the end of the 4° C. lysis, centrifuge the lysate plates 3 mins×1500 rpm. • 7. Use the Bravo to transfer 13.6 μL of lysate from cell culture plate to assay plate.
Then incubate assay plate for 2 hrs at room temperature. […] At the end of incubation, read plate on the Envision after centrifuging plate 30 sec× • 1000 rpm.
The test system of experiment [4] is pERK in H358 cells. The experiment is described as above. The note with it: Homo sapiens, NCI-H358, read-out: Inhibition (HTRF IC50) of KRas-mediated Phosphorylation of ERK, H358.
For experiment [5], the system named is pERK in HCT116 cells. Described as above. Particulars: Homo sapiens, HCT-116, read-out: Inhibition (HTRF IC50) of KRas-mediated Phosphorylation of ERK, HCT116.
For experiment [6], the system named is pERK in H460 cells. The experiment is described as above. The note with it: Homo sapiens, NCI-H460, read-out: Inhibition (HTRF IC50) of KRas-mediated Phosphorylation of ERK, H460.
In experiment [7] the test system is pERK in MKN1 cells. The description is as above. The note with it: Homo sapiens, MKN-1, 3 h, read-out: Inhibition (HTRF IC50) of KRas-mediated Phosphorylation of ERK, MKN1.
The target of experiment [8] is KRas G12R (Homo sapiens, UniProt P01116, G12R). The experiment in a line: biochemical.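 Note: TR-FRET displacement assay of compound binding to KRas, read after one hour at room temperature, potency from a four-parameter fit of percent-of-control values.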
Chain of KRas G12R (P01116 1-169 isoform P01116-2 G12R): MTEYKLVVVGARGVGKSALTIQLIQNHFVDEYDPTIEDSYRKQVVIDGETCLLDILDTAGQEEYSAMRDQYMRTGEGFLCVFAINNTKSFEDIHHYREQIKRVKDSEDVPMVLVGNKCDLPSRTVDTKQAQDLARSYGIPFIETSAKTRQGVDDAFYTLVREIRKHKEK
Experimental: (§2) The ability of a compound to bind to KRas was measured using a TR-FRET displacement assay. […] After a 60-minute incubation at room temperature, the reaction was measured using a BMG LABTECH CLARIO star Plus via TR-FRET. […] The POC values were fit to a 4-parameter IC50 equation and the IC50 value reported.
Experiment [9] relates to phospho-ERK in NCI-H727 (G12V) cells. The experiment in a line: Inhibition of KRas-mediated phosphorylation of ERK (in-cell western). Particulars: Homo sapiens, NCI-H727, 3 h, 3 hours compound, phospho-ERK normalized to GAPDH. It counts as cell-based. The gist of the method:
(§1)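 IC50 came from 4-parameter dose-response fits of phospho-ERK (Thr202/Tyr204)/GAPDH signal, expressed as % DMSO control. Compounds were applied for 3 h at 0.5% DMSO before fixation, methanol permeabilization and antibody imaging by in-cell western.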

In experiment [10] the test system is phospho-ERK in AsPC-1 (G12D) cells. The experiment is described as above. Type of experiment: cell-based. Particulars: Homo sapiens, ASPC1, 3 h, 3 hours compound, phospho-ERK normalized to GAPDH. The gist of the method: as §1
In experiment [11] the test system is phospho-ERK in NCI-H460 (Q61H) cells. Described as above. Particulars: Homo sapiens, NCI-H460, 3 h, 3 hours compound, phospho-ERK normalized to GAPDH. Type of experiment: cell-based. The method, boiled down:
as §1

Experiment [12] has as its target KRas G12D (Homo sapiens, UniProt P01116, G12D). The experiment in a line: biochemical.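 Note: TR-FRET displacement binding assay on KRas, read after a one-hour incubation at room temperature, IC50 fitted from percent-of-control values.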
Experimental: as §2
The subject of experiment [13] is pERK in ASPC1 cells. In words: Inhibition of KRas phosphorylation of ERK (Cisbio HTRF pERK assay). Particulars: Homo sapiens, ASPC1, read-out: Inhibition (HTRF IC50) of KRas-mediated Phosphorylation of ERK, AsPC-1.
In experiment [14] the target is KRas G12V (Homo sapiens, UniProt P01116, G12V). In words: biochemical.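 Note: KRas binding measured by TR-FRET displacement at room temperature, IC50 fitted from percent of control values.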
Chain of KRas G12V (P01116 1-169 isoform P01116-2 G12V): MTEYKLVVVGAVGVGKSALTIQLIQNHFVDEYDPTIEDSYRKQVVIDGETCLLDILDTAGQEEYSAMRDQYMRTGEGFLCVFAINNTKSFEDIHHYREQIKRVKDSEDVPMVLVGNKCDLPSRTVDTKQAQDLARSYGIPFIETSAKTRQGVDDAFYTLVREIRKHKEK
Experimental: as §2
In experiment [15] the target is KRas WT (Homo sapiens, UniProt P01116). In words: biochemical.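 Note: binding to KRas read as TR-FRET displacement after a one-hour room-temperature incubation, IC50 derived from percent-of-control values.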
Chain of KRas WT (P01116 1-169 isoform P01116-2): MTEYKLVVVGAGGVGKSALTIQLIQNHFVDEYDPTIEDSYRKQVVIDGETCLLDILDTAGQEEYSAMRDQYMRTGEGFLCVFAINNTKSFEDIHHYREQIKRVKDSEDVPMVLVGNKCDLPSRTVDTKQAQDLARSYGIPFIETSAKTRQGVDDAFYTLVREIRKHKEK
Experimental: as §2
The target in experiment [16] is KRas G12S (Homo sapiens, UniProt P01116, G12S). In words: biochemical.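 Note: TR-FRET displacement binding to KRas, read after one hour incubation at room temperature, IC50 from four-parameter fit of percent of control.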
Chain of KRas G12S (P01116 1-169 isoform P01116-2 G12S): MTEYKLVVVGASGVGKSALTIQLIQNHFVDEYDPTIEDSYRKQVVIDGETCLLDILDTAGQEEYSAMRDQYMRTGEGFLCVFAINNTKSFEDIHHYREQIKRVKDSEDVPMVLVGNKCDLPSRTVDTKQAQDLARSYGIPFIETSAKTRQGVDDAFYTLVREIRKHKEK
Experimental: as §2
Experiment [17] concerns the target KRas G12C (Homo sapiens, UniProt P01116, G12C). In words: biochemical.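 Note: binding to KRas assessed by TR-FRET displacement after one hour incubation at room temperature, potency fitted from percent-of-control values.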
Experimental: as §2
In experiment [18] the target is KRas G12A (Homo sapiens, UniProt P01116, G12A). In words: biochemical.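 Note: binding to KRas measured by TR-FRET displacement after one hour at room temperature, IC50 from a four-parameter fit of percent-of-control values.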
Chain of KRas G12A (P01116 1-169 isoform P01116-2 G12A): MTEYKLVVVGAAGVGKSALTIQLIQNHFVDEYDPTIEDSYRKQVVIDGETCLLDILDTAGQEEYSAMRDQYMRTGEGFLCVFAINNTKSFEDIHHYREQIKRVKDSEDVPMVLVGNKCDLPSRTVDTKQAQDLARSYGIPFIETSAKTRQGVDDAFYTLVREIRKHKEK
Experimental: as §2

Chain of KRas G12C (P01116 1-169 isoform P01116-2 G12C): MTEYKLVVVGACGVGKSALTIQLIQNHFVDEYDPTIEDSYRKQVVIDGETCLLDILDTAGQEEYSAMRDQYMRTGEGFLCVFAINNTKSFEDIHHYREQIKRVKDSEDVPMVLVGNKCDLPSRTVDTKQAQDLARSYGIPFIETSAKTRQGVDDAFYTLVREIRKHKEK
Chain of KRas G12D (P01116 1-169 isoform P01116-2 G12D): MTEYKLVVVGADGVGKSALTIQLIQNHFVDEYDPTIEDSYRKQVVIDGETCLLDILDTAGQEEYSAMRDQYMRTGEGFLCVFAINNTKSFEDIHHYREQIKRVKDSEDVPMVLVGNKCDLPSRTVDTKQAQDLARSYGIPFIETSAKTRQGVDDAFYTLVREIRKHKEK

One may read the pIC50 as −log10 of the IC50, conventionally taken in molar units. The term IC50 denotes the point on the concentration scale where inhibition reaches its midpoint. A low value points to greater potency in that assay. `CCc1c(F)ccc2cc(O)cc(-c3ncc4c(N5CCCC(O)(C(F)F)C5)nc(OC[C@@]56CCCN5C[C@H](F)C6)nc4c3F)c12` (stereo partly drawn) [Example 184]: the pIC50 in experiment [1] was 5.91; in experiment [2], 7.05; in [3], 7.36; in experiment [4], 7.82; in experiment [5], 7.04; in experiment [6], 7.41. Also, the pIC50 is 8.15 in [7]; 8.52 in [8]; at least 8.70 in [12]; 8.15 in experiment [13]; at least 8.70 in experiment [14]. The half-inhibitory concentration (IC50) in experiment [9] was found to be 201 nM; in experiment [10], 66 nM; in experiment [11], 30 nM.

On to `CCc1c(F)ccc2cc(O)cc(-c3ncc4c(N5CCCCCC5)nc(OC[C@@]56CCCN5C[C@H](F)C6)nc4c3F)c12` [Example 317, 4-(4-(azepan-1-yl)-8-fluoro-2-(((2R,7aS)-2-fluorohexahydro-1H-pyrrolizin-7a-yl)methoxy)pyrido[4,3-d]pyrimidin-7-yl)-5-ethyl-6-fluoronaphthalen-2-ol], for which the pIC50 in experiment [1] was 5.41; in experiment [2], 7.34; in experiment [3], 6.71; in [15], at least 8.70; in experiment [16], at least 8.70; in experiment [17], at least 8.70. The negative-log IC50 (pIC50) in [4] is 6.01; in [5] it was 7.01; in experiment [6], 6.54; in experiment [18] it was at least 8.70; in [7], 7.70; in experiment [8], at least 8.70. Further, the pIC50 in [12] is at least 8.70; in experiment [13] it was 7.40; in [14] it was at least 8.70.

On to `CCc1c(F)ccc2cc(O)cc(-c3ncc4c(N5CCCn6nc(C(=O)N(C)C)cc6C5)nc(OC[C@@]56CCCN5C[C@H](F)C6)nc4c3F)c12` [Example 326, 5-(7-(8-ethyl-7-fluoro-3-hydroxynaphthalen-1-yl)-8-fluoro-2-(((2R,7aS)-2-fluorohexahydro-1H-pyrrolizin-7a-yl)methoxy)pyrido[4,3-d]pyrimidin-4-yl)-N,N-dimethyl-5,6,7,8-tetrahydro-4H-pyrazolo[1,5-a][1,4]diazepine-2-carboxamide], for which the pIC50 is at most 5.00 in [1]; 7.59 in experiment [2]; 6.86 in experiment [3]; at least 8.70 in experiment [15]; at least 8.70 in experiment [16]; at least 8.70 in experiment [17]. Besides, the negative logarithm of the IC50 (pIC50) was 7.74 in experiment [4]; 6.56 in [5]; 6.60 in experiment [6]; at least 8.70 in experiment [18]; 8.10 in experiment [7]; at least 8.70 in experiment [8]. In addition, the pIC50 in [12] was at least 8.70; in [13], 8.00; in experiment [14], at least 8.70.

For the molecule `CCc1c(F)ccc2cc(O)cc(-c3ncc4c(N5CCCCCC(S(C)(=O)=O)C5)nc(OC[C@@]56CCCN5C[C@H](F)C6)nc4c3F)c12` (stereo partly drawn) [Example 309, 5-ethyl-6-fluoro-4-(8-fluoro-2-(((2R,7aS)-2-fluorohexahydro-1H-pyrrolizin-7a-yl)methoxy)-4-(3-(methylsulfonyl)azocan-1-yl)pyrido[4,3-d]pyrimidin-7-yl)naphthalen-2-ol], the pIC50 in experiment [1] is 5.08; in [2], 7.43; in experiment [3], 6.95; in experiment [4] it was 7.59; in experiment [5], 7.59; in [6] it was 7.24. In addition, the negative logarithm of the IC50 (pIC50) in experiment [7] is 8.70; in [8], 8.52; in experiment [12] it was 8.40; in experiment [13], 7.27; in experiment [14] it was at least 8.70. The IC50 is 272 nM in experiment [9], 176 nM in [10] and 59 nM in experiment [11].

As to `C#Cc1c(F)ccc2cc(O)cc(-c3ncc4c(N5C[C@@H]6C[C@H](C5)[C@H](O)C6)nc(OC[C@@]56CCCN5C[C@H](F)C6)nc4c3F)c12` [Example 388, (1R,5R,6R)-3-(7-(8-ethynyl-7-fluoro-3-hydroxynaphthalen-1-yl)-8-fluoro-2-(((2R,7aS)-2-fluorohexahydro-1II-pyrrolizin-7a-yl)methoxy)pyrido[4,3-d]pyrimidin-4-yl)-3-azabicyclo[3,2,1]octan-6-ol], the pIC50 was 6.39 in [1]; 8.30 in experiment [2]; 7.74 in experiment [3]; at least 8.70 in experiment [15]; at least 8.70 in experiment [16]; at least 8.70 in experiment [17]. Moreover, the pIC50 in [4] was 9.00; in experiment [5], 8.05; in experiment [6], 7.68; in experiment [18] it was at least 8.70; in experiment [7] it was 8.10; in experiment [8], at least 8.70. The negative-log IC50 (pIC50) in experiment [12] was at least 8.70; in experiment [13], 7.85; in experiment [14], at least 8.70. Further, the half-inhibitory concentration (IC50) in experiment [9] and in experiment [11] was 16 nM each time.

As for `CCc1c(F)ccc2cc(O)cc(-c3ncc4c(N5CCC[C@@](C)(O)C5)nc(OC[C@@]56CCCN5[C@H](COC(=O)N(C)C)CC6)nc4c3F)c12` [Example 314, ((3S,7aS)-7a-(((7-(8-ethyl-7-fluoro-3-hydroxynaphthalen-1-yl)-8-fluoro-4-((R)-3-hydroxy-3-methylpiperidin-1-yl)pyrido[4,3-d]pyrimidin-2-yl)oxy)methyl)hexahydro-1H-pyrrolizin-3-yl)methyl dimethylcarbamate], the pIC50 in experiment [1] was 6.39; in [2], 7.68; in experiment [3], 7.72; in experiment [15], at least 8.70; in [16], at least 8.70; in experiment [17], at least 8.70. The pIC50 in [4] is 8.70; in experiment [5], 7.68; in experiment [6], 7.85; in experiment [18], at least 8.70; in [7], 8.52; in experiment [8], at least 8.70. The values for the pIC50 in [12], in experiment [13] and in [14] were at least 8.70, 8.05 and at least 8.70, respectively.

Turning to `CCc1c(F)ccc2cc(O)cc(-c3ncc4c(N5CCOC[C@@](C)(O)C5)nc(OCC5(CN6CCCC6)CC5)nc4c3F)c12` [Example 321, (S)-4-(7-(8-ethyl-7-fluoro-3-hydroxynaphthalen-1-yl)-8-fluoro-2-((1-(pyrrolidin-1-ylmethyl)cyclopropyl)methoxy)pyrido[4,3-d]pyrimidin-4-yl)-6-methyl-1,4-oxazepan-6-ol], the pIC50 is 5.11 in experiment [1]; 7.52 in experiment [2]; 7.00 in experiment [3]; at least 8.70 in experiment [15]; at least 8.70 in [16]; at least 8.70 in experiment [17]. The pIC50 in experiment [4] is 8.15; in experiment [5], 7.41; in experiment [6] it was 7.15; in [18], at least 8.70; in experiment [7], 8.52; in experiment [8], at least 8.70. The pIC50 was at least 8.70 in experiment [12], 7.80 in experiment [13] and at least 8.70 in experiment [14].

The record behind these values is patent US12398154B2, “Azaquinazoline pan-KRas inhibitors” (Mirati Therapeutics, Inc., priority 2020, dated 2025).
